How the values were obtained:
Type in all cases: cell-based, mice
[1] = system: dentate gyrus granule cells (α4β2/3δ); test: Tonic inhibition in dentate gyrus granule cells (selectivity); conditions: 1 nM
Source text: In addition to the α1β2δ GABAARs of PV+INs, the following native δ-GABAARs subunit combinations are present in the brain: (α6β2δ on cerebellar granule cells; α4β2/3δ are most prominent in the forebrain where they are found among other neurons on dentate gyrus granule cells. To establish selectivity of the compounds for the α1β2δ GABAARs of PV+INs, the compounds effects in cerebellar granule cells (α6β2δ) and dentate gyrus granule cells (α4β2/3δ) will be compared.
Selectivity measurement will be performed by dividing the blocking fractions of the compounds for tonic inhibition obtained for the PV+IN above by the values determined for cerebellar and dentate gyrus granule cells.

[2] = biological target: T1, fast synaptic α1β2γ2 receptors (Mus musculus, UniProt P22723+P62812+P63137); test: Phasic current recordings in fluorescently labeled PV+INs; conditions: 1 nM, 1-(current in drug/current in control), read-out: fraction inhibited of the phasic current
T1 construct: from tissue; host or cells: mouse cortical and hippocampal brain slices; tdTomato-labelled PV+ interneurons
Source text: (§1) Mice aged 8-24 weeks of both sexes will be anesthetized with halothane and decapitated according to the UCLA Chancellor's Animal Research Committee protocol. Horizontal 350 μm hippocampal slices are cut on a Leica VT1000S Vibratome in ice-cold N-Methyl-D-Glucamine (NMDG)-based HEPES-buffered cutting solution, containing in mM: NMDG 135, D-glucose 10, MgCl2 4, CaCl20.5, KCl 1, KH2PO4 1.2, HEPES 26, kynurenic acid 3, pH 7.3-7.4, 295-297 mOsm/l, bubbled with 100% O2. […]
(§2) For these experiments mice expressing hChR2(H134R)-tdTomato specifically in PV+Ins will be used. […] Cells will be voltage-clamped at 0 mV where tonic and phasic GABAAR mediated currents can be recorded without interference from excitatory events. The tonic and phasic components of the currents will be determined as published using Gaussian fits to the all-points histograms of 30 s epochs of recordings during the pre-drug period, 5-10 min after the washin of the drug to be tested, and 1-2 min after washing-in 40 μM of the pan-GABAAR blocker gabazine (SR-95531). The magnitude of the tonic and phasic currents willbe determined by subtracting the currents in the presence of gabazine. […]

[3] = system: γ-oscillations in the CA3 region hippocampal slices; test: In vitro KA-induced γ-oscillations in the CA3 region hippocampal slices; conditions: 1 nM; 2 min epochs before and after application; 50 nM kainic acid
Source text: as §1
The oscillations can be recorded in the presence of 50 nM kainic acid in horizontally cut hippocampal slices just below the CA3 pyramidal cells layer, and the oscillations recorded in vitro correspond well to those recorded in vivo during spatial reference memory. […] The squared magnitude of the FFT of the oscillations will be analyzed between 30-120 Hz. The area under the FFT curve will be calculated between these two frequencies and compared during a 2 min epoch just before the perfusion of the drug to the last 2 min of a 10 min drug perfusion. The ratios of the areas in-drug/pre-drug will be calculated as in FIG. 1B.
γ-oscillations were recorded in the presence of 50 nM kainic acid in horizontally cut hippocampal slices just below the CA3 pyramidal cells layer. These oscillations recorded in vitro correspond well to those recorded in vivo during spatial reference memory. […]

[4] = biological target: T2, α1β2δ GABAARs of PV+INs (Mus musculus, UniProt P22933+P62812+P63137); test: Tonic current recordings in fluorescently labeled PV+INs; conditions: 1 nM, 1-(current in drug/current in control), read-out: fraction inhibited of the tonic current
T2 construct: the native α1β2δ receptors of PV+INs; from tissue; host or cells: mouse cortical and hippocampal brain slices; tdTomato-labelled PV+ interneurons
Source text: as §1, §2

T1 sequence (P62812 28-455): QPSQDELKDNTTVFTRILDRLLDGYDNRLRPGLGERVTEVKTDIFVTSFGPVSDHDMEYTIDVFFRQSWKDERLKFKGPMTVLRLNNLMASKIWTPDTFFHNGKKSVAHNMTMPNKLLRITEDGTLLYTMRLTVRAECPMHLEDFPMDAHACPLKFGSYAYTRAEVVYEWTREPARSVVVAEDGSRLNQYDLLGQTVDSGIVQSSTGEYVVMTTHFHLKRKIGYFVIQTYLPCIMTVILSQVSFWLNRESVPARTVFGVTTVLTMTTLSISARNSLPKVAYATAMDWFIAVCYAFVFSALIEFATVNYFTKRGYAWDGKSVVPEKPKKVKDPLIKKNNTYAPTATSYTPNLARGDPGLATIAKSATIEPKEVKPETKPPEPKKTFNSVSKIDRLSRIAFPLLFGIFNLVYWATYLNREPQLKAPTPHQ
T1 sequence (P63137 25-512 limits assumed): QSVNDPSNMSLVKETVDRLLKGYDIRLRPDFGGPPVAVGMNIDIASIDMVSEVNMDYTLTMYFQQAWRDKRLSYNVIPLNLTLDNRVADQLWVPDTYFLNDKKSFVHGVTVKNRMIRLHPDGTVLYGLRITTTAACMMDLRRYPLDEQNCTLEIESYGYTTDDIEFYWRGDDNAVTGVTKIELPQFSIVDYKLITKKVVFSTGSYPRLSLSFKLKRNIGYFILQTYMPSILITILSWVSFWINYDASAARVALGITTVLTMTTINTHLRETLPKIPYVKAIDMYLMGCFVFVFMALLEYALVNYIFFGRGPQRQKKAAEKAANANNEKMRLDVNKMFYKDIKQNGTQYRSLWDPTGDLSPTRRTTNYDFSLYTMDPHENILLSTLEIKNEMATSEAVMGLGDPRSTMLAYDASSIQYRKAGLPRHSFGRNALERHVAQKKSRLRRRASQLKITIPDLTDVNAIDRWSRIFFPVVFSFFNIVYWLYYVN
T1 sequence (P22723 39-474): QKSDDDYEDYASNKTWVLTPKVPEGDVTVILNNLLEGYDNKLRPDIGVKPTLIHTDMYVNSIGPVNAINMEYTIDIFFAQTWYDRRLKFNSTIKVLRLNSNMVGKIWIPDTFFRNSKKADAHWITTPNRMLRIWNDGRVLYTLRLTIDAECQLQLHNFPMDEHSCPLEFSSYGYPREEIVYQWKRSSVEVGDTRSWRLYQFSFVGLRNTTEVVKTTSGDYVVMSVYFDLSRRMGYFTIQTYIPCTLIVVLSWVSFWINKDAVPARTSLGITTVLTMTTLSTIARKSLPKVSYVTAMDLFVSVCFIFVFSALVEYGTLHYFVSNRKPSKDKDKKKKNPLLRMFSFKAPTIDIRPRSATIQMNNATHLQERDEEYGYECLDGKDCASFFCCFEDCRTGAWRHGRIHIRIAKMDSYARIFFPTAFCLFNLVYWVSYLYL
T2 sequence (P62812 28-455): as the sequence (P62812 28-455) above
T2 sequence (P63137 26-512): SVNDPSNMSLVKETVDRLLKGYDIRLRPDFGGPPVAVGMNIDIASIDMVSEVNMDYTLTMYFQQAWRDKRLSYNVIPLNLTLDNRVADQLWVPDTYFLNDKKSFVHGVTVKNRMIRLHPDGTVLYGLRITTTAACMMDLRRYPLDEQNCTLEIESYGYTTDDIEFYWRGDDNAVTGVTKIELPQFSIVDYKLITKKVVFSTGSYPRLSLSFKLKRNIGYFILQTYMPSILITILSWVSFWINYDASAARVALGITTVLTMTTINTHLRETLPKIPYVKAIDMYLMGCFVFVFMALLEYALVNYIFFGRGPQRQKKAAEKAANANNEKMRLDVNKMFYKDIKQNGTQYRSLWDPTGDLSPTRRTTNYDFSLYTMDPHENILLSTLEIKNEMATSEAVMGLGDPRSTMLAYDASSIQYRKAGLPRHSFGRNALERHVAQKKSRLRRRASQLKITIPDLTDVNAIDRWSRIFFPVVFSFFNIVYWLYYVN
T2 sequence (P22933 25-449): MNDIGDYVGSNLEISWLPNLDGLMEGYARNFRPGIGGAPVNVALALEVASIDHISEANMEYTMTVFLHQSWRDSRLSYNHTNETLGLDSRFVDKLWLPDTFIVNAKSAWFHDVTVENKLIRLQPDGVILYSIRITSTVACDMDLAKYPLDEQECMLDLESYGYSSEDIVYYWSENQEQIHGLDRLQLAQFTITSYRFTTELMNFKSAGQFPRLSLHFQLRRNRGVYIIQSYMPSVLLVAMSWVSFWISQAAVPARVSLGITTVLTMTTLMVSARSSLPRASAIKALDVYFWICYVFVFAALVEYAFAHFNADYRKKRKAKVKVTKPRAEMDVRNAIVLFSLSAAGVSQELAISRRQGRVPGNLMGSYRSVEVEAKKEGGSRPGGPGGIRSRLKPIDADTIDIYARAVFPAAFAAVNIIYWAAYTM

Q: Which results are given for `On1cc(C2CCNCC2)c(Cc2ccc3ccccc3c2)n1` [DDL-920, 3-(naphthalen-2-ylmethyl)-4-(piperidin-4-yl)-1H-pyrazol-1-ol]?
A: blocking fraction for tonic inhibition in dentate granule cells [1]: 0.376; selectivity, PV+IN vs dentate granule cell blocking fraction of tonic inhibition ([1]; PV+IN/dentate granule cell): 2.11; inhibition at 0.001 µM [2]: 1.1%; ratio of the drug/control areas under the FFT curve between 30-120 Hz [3]: 4.26; inhibition at 0.001 µM [4]: 79.2%
